Laboratory results from paper PMC10191325 (PLOS Neglected Tropical Diseases, 2023).

Assays:
[1] = target: T1, WbDHFR (dihydrofolate reductase) (Wuchereria bancrofti, UniProt J9F199); test: X-ray crystal structure ([…] Å) and tryptophan fluorescence equilibrium titration; assay type: binding; set-up: gene WUBG_00817; open reading frame with engineered N-terminal His6-tag
[2] = target: T1, WbDHFR (dihydrofolate reductase); test: biochemical; set-up: gene WUBG_00817

| IC50 [2] [nM] | Compound | Kd [1] [nM] |
| --- | --- | --- |
|  | Nc1nc2ncc(CNc3ccc(C(=O)N[C@@H](CCC(=O)O)C(=O)O)cc3)nc2c(=O)[nH]1 [folate] | 23 ± 4 |
|  | NC(=O)C1=CN([C@@H]2O[C@H](COP(=O)(O)OP(=O)(O)OC[C@H]3O[C@@H](n4cnc5c(N)ncnc54)[C@H](OP(=O)(O)O)[C@@H]3O)[C@@H](O)[C@H]2O)C=CC1 [NADPH] | 90 ± 29 |
| 490 ± 160 | COc1cc(NCc2ccc3nc(N)nc(N)c3c2C)cc(OC)c1OC [TMX, trimetrexate] |  |
